According to patent US12194048B2, “Use of pyrrolopyridine derivatives for preventing or treating inflammatory diseases” (VORONOI CO., LTD., priority 2020, dated 2025):

Columns and labels:
[1] = test system: IMQ-induced psoriasis-like skin inflammation model; experiment: Oral treatment in imiquimod (IMQ)-induced psoriasis-like skin inflammation; type: in vivo, BALB/c mice
Protocol: The positive control, methotrexate at 2 mg/kg and tofacitinib at 5 mg/kg were administered by oral gavage twice (BID) daily during the same study period.
Fifteen (15) mg Imiquimod (IMQ) cream (5%) (Aldara; 3M Pharmaceuticals) was topically (TOP) administered once daily (QD) on the right ear one hour after treatment from Day 1 to Day 9 for 9 consecutive days, translating to a daily dose of 0.75 mg of the active compound. Ear swelling was measured on Day 0 and thereafter 30 min before dosing on Days 2, 4, 6 and 8. On Day 10, ear swelling was measured 24 hours after the last dosing.

[2] = test system: IMQ-induced psoriasis-like skin inflammation model; experiment: Topical treatment in imiquimod (IMQ)-induced psoriasis-like skin inflammation; type: in vivo, BALB/c mice; conditions: 0.15% topical; during the study period
Protocol: Dexamethasone (0.15%), the reference compound, was applied topically at 20 μL/mouse on the right ear once daily (QD) during the same study period.
Fifteen (15) mg imiquimod (IMQ) cream (5%) (Aldara; 3M Pharmaceuticals) was topically administered once daily (QD) on the right ear one hour after treatment from Day 1 to Day 9 for 9 consecutive days, translating to a daily dose of 0.75 mg of the active compound.
Ear swelling was measured on Day 0 and thereafter 30 min before dosing on Days 2, 4, 6 and 8. On Day 10, ear swelling was measured 24 hours after the last dosing.

C[C@@H]1CCN(C(=O)CC#N)C[C@@H]1N(C)c1ncnc2[nH]ccc12 [Tofacitinib, tofacitinib]
IMQ-induced ear swelling ([1]; 5 mg/kg oral gavage BID, Day 8 to Day 10): significant (p<0.05) inhibition

C[C@@H]1C[C@H]2[C@@H]3CCC4=CC(=O)C=C[C@]4(C)[C@@]3(F)[C@@H](O)C[C@]2(C)[C@@]1(O)C(=O)CO [dexamethasone, reference compound]
body weight [2]: significant (p<0.05) decrease

CN(Cc1cnc2nc(N)nc(N)c2n1)c1ccc(C(=O)N[C@@H](CCC(=O)O)C(=O)O)cc1 [methotrexate]
body weight ([1]; 2 mg/kg PO BID×9 days, Day 9 to Day 10): significantly decreased
IMQ-induced ear swelling ([1]; 2 mg/kg oral gavage BID, Day 8, vs vehicle group): significant (p<0.05) effect
